Assay results: PubChem BioAssay (NCI)
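Five concentrations, 48 hours, 96-well plates. GI50 = concentration required for 50% inhibition of growth. The concentration for full growth arrest is given as TGI.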

Experiments:
Test in all cases: NCI tumour cell line growth inhibition, 48 h
LOX IMVI melanoma = test system: LOX IMVI melanoma
HCC-2998 colon = test system: HCC-2998 colon
SF-295 CNS = test system: SF-295 CNS
SNB-75 CNS = test system: SNB-75 CNS
NCI/ADR-RES ovarian = test system: NCI/ADR-RES ovarian
NCI-H460 lung = test system: NCI-H460 lung
786-0 renal = test system: 786-0 renal
HOP-92 NSCLC = test system: HOP-92 NSCLC
SW-620 colon = test system: SW-620 colon
OVCAR-5 ovarian = test system: OVCAR-5 ovarian
U251 CNS = test system: U251 CNS
T-47D breast = test system: T-47D breast
A498 renal = test system: A498 renal
DU-145 prostate = test system: DU-145 prostate
PC-3 prostate = test system: PC-3 prostate
MDA-MB-231 breast = test system: MDA-MB-231 breast
SK-MEL-2 melanoma = test system: SK-MEL-2 melanoma
K-562 leukemia = test system: K-562 leukemia
M14 melanoma = test system: M14 melanoma
HT29 colon = test system: HT29 colon
MOLT-4 leukemia = test system: MOLT-4 leukemia
COLO 205 colon = test system: COLO 205 colon
MCF7 breast = test system: MCF7 breast
NCI-H226 lung = test system: NCI-H226 lung
SR leukemia = test system: SR leukemia
UACC-62 melanoma = test system: UACC-62 melanoma
SK-OV-3 ovarian = test system: SK-OV-3 ovarian
UO-31 renal = test system: UO-31 renal
IGROV1 ovarian = test system: IGROV1 ovarian

C=CCn1c(=O)c2cnc(Nc3ccc(N4CCN(C)CC4)cc3)nc2n1-c1ccc2c(n1)[C@@](O)(CC)CC2
GI50 (LOX IMVI melanoma): 1020 nM
TGI (LOX IMVI melanoma): 9890 nM
GI50 (HCC-2998 colon): 593 nM
TGI (HCC-2998 colon): 3820 nM
GI50 (SF-295 CNS): 742 nM
TGI (SF-295 CNS): 18700 nM
GI50 (SNB-75 CNS): 1070 nM
TGI (SNB-75 CNS): 13700 nM
GI50 (NCI/ADR-RES ovarian): 5690 nM
TGI (NCI/ADR-RES ovarian): 33500 nM
GI50 (NCI-H460 lung): 1940 nM
TGI (NCI-H460 lung): 16700 nM
GI50 (786-0 renal): 271 nM
TGI (786-0 renal): 12200 nM
GI50 (HOP-92 NSCLC): 494 nM
TGI (HOP-92 NSCLC): 30500 nM
GI50 (SW-620 colon): 525 nM
TGI (SW-620 colon): > 100000 nM
GI50 (OVCAR-5 ovarian): 1200 nM
TGI (OVCAR-5 ovarian): 19500 nM
GI50 (U251 CNS): 1110 nM
TGI (U251 CNS): 35700 nM
GI50 (T-47D breast): 2170 nM
TGI (T-47D breast): > 80700 nM
GI50 (A498 renal): 161 nM
TGI (A498 renal): 3620 nM
GI50 (DU-145 prostate): 939 nM
TGI (DU-145 prostate): 35300 nM
GI50 (PC-3 prostate): 2240 nM
TGI (PC-3 prostate): > 100000 nM
GI50 (MDA-MB-231 breast): 558 nM
TGI (MDA-MB-231 breast): 4190 nM
GI50 (SK-MEL-2 melanoma): 332 nM
TGI (SK-MEL-2 melanoma): 2440 nM
GI50 (K-562 leukemia): 325 nM
TGI (K-562 leukemia): > 34800 nM
GI50 (M14 melanoma): 225 nM
TGI (M14 melanoma): 5810 nM
GI50 (HT29 colon): 261 nM
TGI (HT29 colon): 4490 nM
GI50 (MOLT-4 leukemia): 296 nM
TGI (MOLT-4 leukemia): 1370 nM
GI50 (COLO 205 colon): 336 nM
TGI (COLO 205 colon): 2570 nM
GI50 (MCF7 breast): 344 nM
TGI (MCF7 breast): > 42800 nM
GI50 (NCI-H226 lung): 1940 nM
TGI (NCI-H226 lung): 15200 nM
GI50 (SR leukemia): 193 nM
TGI (SR leukemia): 1380 nM
GI50 (UACC-62 melanoma): 504 nM
TGI (UACC-62 melanoma): 16400 nM
GI50 (SK-OV-3 ovarian): 284 nM
TGI (SK-OV-3 ovarian): 4480 nM
GI50 (UO-31 renal): 360 nM
TGI (UO-31 renal): 6960 nM
GI50 (IGROV1 ovarian): 212 nM
TGI (IGROV1 ovarian): 13600 nM
